In data set [1] the target is T1, SLC-1 expression CHO cell membrane fraction (MCH receptor) (Homo sapiens, UniProt Q99705).
T1 construct: expressed in transfected cells; host or cells: CHO cells (human SLC-1 clone 57 / rat SLC-1 clone 44), membrane fraction
Nature of the data set: Antagonistic activity of test compound using GTPγS binding assay. Conditions: [35S]-GTPγS binding stimulated by MCH, 25° C., 1 hr, read-out: inhibitory activity (IC50: nM). In kind it is biochemical, human/rat. The procedure:
Determination of Antagonistic Activity of Test Compound using GTPγS Binding Assay
Using human SLC-1 expression CHO cell clone 57 and rat SLC-1 expression CHO cell clone 44 described in WO01/82925, SLC-1 expression CHO cell membrane fractions were prepared by the following method. In phosphate buffered saline (pH 7.4) supplemented with 5 mM EDTA (ethylenediaminetetraacetic acid) were suspended human and rat SLC-1 expression CHO cells (1×10^8) and centrifuged. Homogenate buffer (10 ml, 10 mM NaHCO3, 5 mM EDTA, pH 7.5) was added to the pellets of the cells and, using Polytron Homogenizer, the mixture was homogenated. The supernatant obtained after centrifugation at 400×g for 15 min was further centrifuged at 100,000×g for 1 hr to give precipitate of the membrane fraction. The precipitate was suspended in 2 ml of an assay buffer [50 mM Tris-HCl (pH 7.5), 1 mM EDTA, 0.1% BSA (bovine serum albumin), 10 mM MgCl2, 100 mM NaCl, 1 μM GDP (guanosine 5′-diphosphate), 0.25 mM PMSF (phenylmethylsulfonyl fluoride), […] pepstatin, […] leupeptin, […] phosphoramidon] and centrifuged at 100,000×g for 1 hr. The membrane fraction recovered as precipitate was suspended again in 20 ml of an assay buffer, and after dispensing, preserved at −80° C. and used upon thawing each time when in use.
The antagonistic activity of the test compound was determined as follows. The SLC-1 expression CHO cell membrane fraction (171 μl) diluted with an assay buffer was dispensed to a polypropylene 96 well plate and 3×10^−10 M MCH (2 μl) diluted with DMSO solution, test compound solution (2 μl) diluted to various concentrations and [^35S]-Guanosine 5′-(γ-thio)triphosphate ([…] Daiichi Pure Chemicals Co., Ltd.) were respectively added (cell membrane final concentration: 20 μg/ml, [^35S]-Guanosine 5′-(γ-thio)triphosphate final concentration: 0.33 nM). The reaction mixture was reacted at 25° C. for 1 hr with stirring, suction filtered with a glass filter (GF-C) and washed 3 times with a wash solution (300 μl, 50 mM Tris-HCl buffer, pH 7.5). Liquid scintillator ([…]) was added to the glass filter and the residual radioactivity was determined by a liquid scintillation counter. Binding inhibition (%)=(radioactivity upon addition of test compound and MCH−radioactivity upon addition of DMSO solution)/(radioactivity upon addition of MCH−radioactivity upon addition of DMSO solution)×100
From the binding inhibition (%), IC50 of the test compound was calculated.
A general note: GTPγS is a poorly hydrolysed GTP analogue; its binding reports G protein activation.

The record followed here is patent US7989445B2, “Thienopyrimidone compound” (Takeda Pharmaceutical Company Limited, priority 2005, dated 2011).

The IC50 is the concentration at which inhibition is half-maximal. In general, melting point refers to the temperature of the solid-liquid transition.

Counter-ions that a name gives are not always drawn.

T1 sequence (Q99705 whole entry): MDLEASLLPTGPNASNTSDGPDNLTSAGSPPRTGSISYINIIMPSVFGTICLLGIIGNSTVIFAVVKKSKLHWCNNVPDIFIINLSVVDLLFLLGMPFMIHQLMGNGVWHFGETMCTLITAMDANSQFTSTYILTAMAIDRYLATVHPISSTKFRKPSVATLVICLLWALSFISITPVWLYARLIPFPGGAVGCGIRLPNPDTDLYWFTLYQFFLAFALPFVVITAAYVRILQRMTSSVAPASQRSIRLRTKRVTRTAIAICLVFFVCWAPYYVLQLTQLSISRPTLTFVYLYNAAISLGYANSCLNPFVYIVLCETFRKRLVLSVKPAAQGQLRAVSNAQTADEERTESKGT

`O=C1CCCN1Cc1ccc(CCn2cnc3cc(-c4ccc(Cl)cc4)sc3c2=O)cc1` [Example 11, 6-(4-chlorophenyl)-3-(2-{4-[(2-oxopyrrolidin-1-yl)methyl]phenyl}ethyl)thieno[3,2-d]pyrimidin-4(3H)-one] showed a melting point of 218 to 221 °C. Besides, in data set [1], the IC50 came to 3.2 nM.

With `CC(=O)N(C)N(C)c1ccc(CCn2cnc3cc(-c4ccc(Cl)cc4)sc3c2=O)cc1` [Example 22, N′-[4-[2-[6-(4-chlorophenyl)-4-oxothieno[3,2-d]pyrimidin-3(4H)-yl]ethyl]phenyl]-N,N′-dimethylacetohydrazide], in data set [1], the half-maximal inhibitory concentration (IC50) was 10 nM.

Regarding `O=c1c2sc(-c3ccc(Cl)cc3)cc2ncn1CCc1ccc(CN2CC[C@H](F)C2)cc1` [Example 18, 6-(4-chlorophenyl)-3-[2-(4-{[(3S)-3-fluoropyrrolidin-1-yl]methyl}phenyl)ethyl]thieno[3,2-d]pyrimidin-4(3H)-one], the 50% inhibitory concentration (IC50) in data set [1] was found to be 1.2 nM.

As for `CC(c1ccc(CCn2cnc3cc(-c4ccc(Cl)cc4)sc3c2=O)cc1)N1CCCCC1` (stereo not drawn) [Example 2, 6-(4-chlorophenyl)-3-{2-[4-(1-piperidin-1-ylethyl)phenyl]ethyl}thieno[3,2-d]pyrimidin-4(3H)-one], the melting point fell in the range of 175 to 179 °C. Besides, the half-inhibitory concentration (IC50) in data set [1] was determined as 0.4 nM.

`CN(C)C(=S)N(C)Cc1ccc(CCn2cnc3cc(-c4ccc(Cl)cc4)sc3c2=O)cc1` [Example 9, N-(4-{2-[6-(4-chlorophenyl)-4-oxothieno[3,2-d]pyrimidin-3(4H) -yl]ethyl}benzyl)-N,N′,N′-trimethylthiourea] yielded a melting point of 156 to 158 °C. The IC50 in data set [1] amounted to 4.7 nM.

`CN(CC(N)=O)Cc1ccc(CCn2cnc3cc(-c4ccc(Cl)cc4)sc3c2=O)cc1` [Example 32, N^2-(4-{2-[6-(4-chlorophenyl)-4-oxothieno[3,2-d]pyrimidin-3(4H) -yl]ethyl}benzyl)-N^2-methylglycinamide] showed a melting point of 207 to 212 °C. The half-inhibitory concentration (IC50) in data set [1] was determined as 5 nM.

Take `CNCc1ccc(CCn2cnc3cc(-c4ccc(Cl)cc4)sc3c2=O)cc1` [Example 4, 6-(4-chlorophenyl)-3-(2-{4-[(methylamino)methyl]phenyl}ethyl)thieno[3,2-d]pyrimidin-4(3H)-one dihydrochloride]: the IC50 in data set [1] is 0.4 nM.

As for `CC(=O)N(C)Cc1ccc(CCn2cnc3cc(-c4ccc(Cl)cc4)sc3c2=O)cc1` [Example 6, N-(4-{2-[6-(4-chlorophenyl)-4-oxothieno[3,2-d]pyrimidin-3(4H) -yl]ethyl}benzyl)-N-methylacetamide], the melting point lay within 176 to 178 °C. The half-inhibitory concentration (IC50) in data set [1] was 4.8 nM.

In the case of `O=c1c2sc(-c3ccc(Cl)cc3)cc2ncn1CCc1ccc(CN2CCCC2)cc1` [Example 1, 6-(4-chlorophenyl)-3-{2-[4-(pyrrolidin-1-ylmethyl)phenyl]ethyl}thieno[3,2-d]pyrimidin-4(3H)-one], the melting point fell in the range of 163 to 166 °C. In data set [1], the concentration for half-maximal inhibition (IC50) worked out at 0.3 nM.
